Source: patent US20250296959A1, “B7-H3 TARGETING PEPTIDES AND CONSTRUCTS THEREOF” (Mariana Oncology Inc., priority 2024, published 2025)
Blank lines part the entries; values can stand above or below the molecule they belong to. Starred links: 1 amine or outer side, 2 acyl side, 3 side chain; linkers in the order of their positions; H or OH if unused. Positions of bridges follow the written chain, without caps; N, C: chain ends. Non-standard residues stand in square brackets, D forms with d. Residues, ends and D or L forms follow the SMILES beside them. Groups on a side chain read outwards from the residue. Primed or numbered codes have the meaning given here. *: point of attachment. X6 = CSCC[C@H](NC(=O)c1ccc(CNC(=O)CN2CCN(CC(=O)O)CCN(CC(=O)O)CCN(CC(=O)O)CC2)cc1)C(=O)N[C@H](C(=O)N[C@@H](CCCCN*)C(=O)O)C(C)C; Ala(piperidin-4-yl) = O=C([C@H](CC1CCN([*:3])CC1)N[*:1])[*:2]; DOTA = O=C(O)CN1CCN(CC(=O)O)CCN(CC(=O)*)CCN(CC(=O)O)CC1; Trp(5-F) = N[C@@H](Cc1c[nH]c2ccc(F)cc12)C(=O)O; X1 = C[C@@H](c1ccccc1)[C@H](N[*:1])C(=O)[*:2]; PEG4′ = 4x 3-(2-aminoethoxy)propanoic acid; γGlu = O=C(O)[C@H](CCC(=O)[*:2])N[*:1]; 1Nal = N[C@@H](Cc1cccc2ccccc12)C(=O)O; Ala(4-THP) = N[C@@H](CC1CCOCC1)C(=O)O; Lys(Me2) = CN(C)CCCC[C@H](N)C(=O)O; Val(3-OH) = CC(C)(O)[C@H](N)C(=O)O; PEG4 = NCCOCCOCCOCCOCCC(=O)O; Tle = CC(C)(C)[C@H](N)C(=O)O; hLeu = CC(C)CC[C@H](N)C(=O)O

Columns and labels:
[1] = target: T1, 2Ig B7-H3 (Homo sapiens, UniProt Q5ZPR3); assay: SPR binding affinity to 2Ig B7-H3; details: 37° C.; read-out: 2Ig B7-H3_KD (nM) at 37° C.
T1 sequence (Q5ZPR3 29-316 isoform Q5ZPR3-2 limits assumed): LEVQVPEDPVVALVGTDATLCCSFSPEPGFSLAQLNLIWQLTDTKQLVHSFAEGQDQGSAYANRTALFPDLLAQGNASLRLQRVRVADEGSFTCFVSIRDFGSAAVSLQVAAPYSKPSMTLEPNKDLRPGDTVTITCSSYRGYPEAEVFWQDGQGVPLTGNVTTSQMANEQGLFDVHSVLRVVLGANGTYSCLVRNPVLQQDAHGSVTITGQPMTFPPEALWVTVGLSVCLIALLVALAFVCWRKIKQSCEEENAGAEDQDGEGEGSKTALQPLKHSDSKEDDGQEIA

[2] = target: T2, human 4lg B7-H3 (Homo sapiens, UniProt Q5ZPR3); assay: Affinity determination by surface plasmon resonance (SPR) to 4Ig B7-H3; details: SPR KD—37° C., 4Ig B7-H3; 37° C. flow cell temperature
T2 sequence (Q5ZPR3 29-534): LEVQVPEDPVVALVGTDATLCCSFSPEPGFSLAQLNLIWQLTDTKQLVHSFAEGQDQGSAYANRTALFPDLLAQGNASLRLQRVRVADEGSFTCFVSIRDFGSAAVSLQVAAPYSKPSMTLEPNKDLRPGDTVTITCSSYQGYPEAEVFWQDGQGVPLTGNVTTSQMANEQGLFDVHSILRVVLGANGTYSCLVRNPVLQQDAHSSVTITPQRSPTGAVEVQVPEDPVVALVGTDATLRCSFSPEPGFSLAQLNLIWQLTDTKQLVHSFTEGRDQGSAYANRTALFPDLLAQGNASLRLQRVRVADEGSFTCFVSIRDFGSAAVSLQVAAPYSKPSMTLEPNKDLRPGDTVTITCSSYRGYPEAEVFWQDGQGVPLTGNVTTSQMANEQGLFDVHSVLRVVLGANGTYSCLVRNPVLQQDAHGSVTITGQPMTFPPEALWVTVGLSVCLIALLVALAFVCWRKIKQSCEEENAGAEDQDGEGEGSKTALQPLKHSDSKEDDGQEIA

[3] = test system: Calu-6 cell line; assay: Cell associated (bound) fraction of [177Lu]Lu-labeled peptide in Calu-6 cells; type: cell-based, Human; details: 1 hour, 37° C.
How it was run: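 Peptide conjugate was labelled with [177Lu]LuCl3 in ammonium acetate pH ~5 at 80 °C for 17-20 min, with purity checked by RP-HPLC. Calu-6 suspensions (5 million cells/mL in 1% PBSA) were incubated with 0.8 μCi for 1 h at 37 °C. Cell pellets were gamma-counted after two cold PBS/BSA washes, giving the bound fraction against the unbound supernatant plus washes.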

[4] = test system: Calu-6 cell line; assay: Net internalization of [177Lu]Lu-labeled peptide in Calu-6 cells; type: cell-based, Human; details: 1 hour, 37° C., glycine pH 2.5 acid wash
How it was run: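 Peptide conjugate labeled with [177Lu]LuCl3 at pH ~5, 80 °C, 17–20 min, and purity checked by RP-HPLC. B7-H3-expressing human Calu-6 lung cancer cells at 5 million cells/mL in 1% PBSA. Internalized fraction: counts left after two 3 min 50 mM glycine pH 2.5 washes and NaOH lysis, gamma counted against bound fraction.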

[5] = target: T3, B7-H3 on Calu-6 cells (human, UniProt Q5ZPR3 29-534); assay: 177Lu-labelled peptide on Calu-6 cells, % cell associated fraction; B = 25<%<=50
T3 construct: whole, on cells
T3 sequence (looked up): T2 sequence (Q5ZPR3 29-534)

Kd [1]: 6200 nM
Kd [2]: 1 to 10 nM
Molecule: CC(=O)N[C@@H](CCC(C)C)C(=O)N[C@@H](Cc1ccc(O)cc1)C(=O)N[C@H]1CSSC[C@@H](C(=O)N[C@@H](Cc2c[nH]c3ccc(F)cc23)C(=O)N[C@@H](Cc2ccccc2)C(=O)N[C@H](C(=O)O)C(C)(C)O)NC(=O)[C@H](Cc2ccc(O)cc2)NC(=O)[C@H](C(C)C)NC(=O)[C@H](CC(=O)O)NC(=O)[C@H](CC2CCN(C(=O)CN3CCN(CC(=O)O)CCN(CC(=O)O)CCN(CC(=O)O)CC3)CC2)NC(=O)[C@H](CCCCN)NC(=O)CNC(=O)[C@H](C(C)(C)C)NC1=O [compound 344, Ac-hLeu-Y-C-Tbg-G-K-Pip(DOTA)Ala-D-V-Y-C-5FW-F-hydroxyVal-COOH] (Ac-[hLeu]YC[Tle]GK[Ala(piperidin-4-yl)](DOTA)DVYC[Trp(5-F)]F[Val(3-OH)]-OH; disulfide 3-11)

Molecule: CC(=O)N[C@@H](CCC(C)C)C(=O)N[C@@H](Cc1ccc(O)cc1)C(=O)N[C@H]1CSSC[C@@H](C(=O)N[C@@H](Cc2c[nH]c3ccc(F)cc23)C(=O)N[C@@H](Cc2ccccc2)C(=O)N[C@H](C(=O)N[C@H](CO)C(N)=O)C(C)(C)O)NC(=O)[C@H](Cc2ccc(O)cc2)NC(=O)[C@H](C(C)C)NC(=O)[C@H](CC(=O)O)NC(=O)[C@H](CC2CCN(C(=O)CCOCCOCCOCCOCCNC(=O)CN3CCN(CC(=O)O)CCN(CC(=O)O)CCN(CC(=O)O)CC3)CC2)NC(=O)[C@H](CCCCN)NC(=O)CNC(=O)[C@H](C(C)(C)C)NC1=O [compound 408, Ac-hLeu-Y-C-Tbg-G-K-Pip(PEG4-DOTA)Ala-D-V-Y-C-5FW-F-hydroxyVal-dSer-CONH2] (Ac-[hLeu]YC[Tle]GK[Ala(piperidin-4-yl)]([PEG4-DOTA])DVYC[Trp(5-F)]F[Val(3-OH)][dS]-NH2; disulfide 3-11)
% cell associated fraction [3]: C (%>50)
Kd [1]: 920 nM
% net internalization [4]: A (%≤25)
Kd [2]: < 1 nM

Molecule: CC(=O)N[C@@H](CCC(C)C)C(=O)N[C@@H](Cc1ccc(O)cc1)C(=O)N[C@H]1CSSC[C@@H](C(=O)N[C@@H](Cc2c[nH]c3ccc(F)cc23)C(=O)N[C@@H](Cc2ccccc2)C(=O)N[C@H](C(=O)N[C@H](CCC(=O)O)C(N)=O)C(C)(C)O)NC(=O)[C@H](Cc2ccc(O)cc2)NC(=O)[C@H](C(C)C)NC(=O)[C@H](CC(=O)O)NC(=O)[C@H](CC2CCN(C(=O)CCOCCOCCOCCOCCNC(=O)CN3CCN(CC(=O)O)CCN(CC(=O)O)CCN(CC(=O)O)CC3)CC2)NC(=O)[C@H](CCCCN)NC(=O)CNC(=O)[C@H](C(C)(C)C)NC1=O [compound 410, Ac-hLeu-Y-C-Tbg-G-K-Pip(PEG4-DOTA)Ala-D-V-Y-C-5FW-F-hydroxyVal-dGlu-CONH2] (Ac-[hLeu]YC[Tle]GK[Ala(piperidin-4-yl)]([PEG4-DOTA])DVYC[Trp(5-F)]F[Val(3-OH)][dE]-NH2; disulfide 3-11)
% cell associated fraction [3]: B (25<%≤50)
Kd [1]: 820 nM
% net internalization [4]: A (%≤25)
Kd [2]: < 1 nM

Kd [1]: > 10000 nM
Kd [2]: 1 to 10 nM
Molecule: CC(=O)N[C@@H](CCC(C)C)C(=O)N[C@@H](Cc1ccc(O)cc1)C(=O)N[C@H]1CSSC[C@@H](C(=O)N[C@@H](Cc2c[nH]c3ccc(F)cc23)C(=O)N[C@@H](Cc2ccccc2)C(=O)N[C@H](C(=O)N[C@H](CCC(=O)O)C(N)=O)C(C)(C)O)NC(=O)[C@H](Cc2ccc(O)cc2)NC(=O)[C@H](C(C)C)NC(=O)[C@H](CC(=O)O)NC(=O)[C@H](CC2CCOCC2)NC(=O)[C@H](CC2CCN(C(=O)CC[C@H](NC(=O)CN3CCN(CC(=O)O)CCN(CC(=O)O)CCN(CC(=O)O)CC3)C(=O)O)CC2)NC(=O)CNC(=O)[C@H](C(C)(C)C)NC1=O [compound 475, Ac-hLeu-Y-C-Tbg-G-Pip(gE-DOTA)Ala-ThpA-D-V-Y-C-5FW-F-hydroxyVal-dGlu-CONH2] (Ac-[hLeu]YC[Tle]G[Ala(piperidin-4-yl)]([γGlu-DOTA])[Ala(4-THP)]DVYC[Trp(5-F)]F[Val(3-OH)][dE]-NH2; disulfide 3-11)

Kd [1]: 510 nM
Kd [2]: < 1 nM
Molecule: CSCC[C@H](NC(=O)c1ccc(CNC(=O)CN2CCN(CC(=O)O)CCN(CC(=O)O)CCN(CC(=O)O)CC2)cc1)C(=O)N[C@H](C(=O)N[C@@H](CCCCNC(=O)CC[C@@H]1NC(=O)CNC(=O)[C@H](C(C)(C)C)NC(=O)[C@@H](NC(=O)[C@H](Cc2ccc(O)cc2)NC(=O)[C@H](CCC(C)C)NC(C)=O)CSSC[C@@H](C(=O)N[C@@H](Cc2c[nH]c3ccc(F)cc23)C(=O)N[C@H](C(=O)N[C@H](C(=O)N[C@H](CO)C(=O)O)C(C)(C)O)[C@@H](C)c2ccccc2)NC(=O)[C@H](Cc2ccc(O)cc2)NC(=O)[C@H](C(C)C)NC(=O)[C@H](CC(=O)O)NC(=O)[C@H](CC2CCOCC2)NC1=O)C(=O)O)C(C)C [compound 519, Ac-hLeu-Y-C-Tbg-G-Glu[&Lys(OH)-Val-Met-AmBz-DOTA]-ThpA-D-V-Y-C-5FW-[(2S, 3S)beta-Me-Phe]-hydroxyVal-dSer-COOH] (Ac-[hLeu]YC[Tle]GE(X6)[Ala(4-THP)]DVYC[Trp(5-F)][X1][Val(3-OH)][dS]-OH; disulfide 3-11)

Kd [1]: 260 nM
Kd [2]: < 1 nM
Molecule: CC(=O)N[C@@H](CCC(C)C)C(=O)N[C@@H](Cc1ccc(O)cc1)C(=O)N[C@H]1CSSC[C@@H](C(=O)N[C@@H](Cc2c[nH]c3ccc(F)cc23)C(=O)N[C@H](C(=O)N[C@H](C(=O)N[C@H](C)C(=O)O)C(C)(C)O)[C@@H](C)c2ccccc2)NC(=O)[C@H](Cc2ccc(O)cc2)NC(=O)[C@H](C(C)C)NC(=O)[C@H](CC(=O)O)NC(=O)[C@H](CC2CCN(C(=O)CCOCCOCCOCCOCCNC(=O)CN3CCN(CC(=O)O)CCN(CC(=O)O)CCN(CC(=O)O)CC3)CC2)NC(=O)[C@H](CCCCN(C)C)NC(=O)CNC(=O)[C@H](C(C)(C)C)NC1=O [compound 521, Ac-hLeu-Y-C-Tbg-G-Lys(Me)2-Pip(PEG4-DOTA)Ala-D-V-Y-C-5FW-[(2S, 3S)beta-Me-Phe]-hydroxyVal-dAla-COOH] (Ac-[hLeu]YC[Tle]G[Lys(Me2)][Ala(piperidin-4-yl)]([PEG4-DOTA])DVYC[Trp(5-F)][X1][Val(3-OH)][dA]-OH; disulfide 3-11)

% cell associated fraction [5]: 25 to 50%
B1: Cpd 179 (peptide)
peptide: Ac-[hLeu]YC[Tle]GKYDVYC[1Nal]FT[dK](DOTA)-NH2
modifications: disulfide 3-11
SMILES: CC(=O)N[C@@H](CCC(C)C)C(=O)N[C@@H](Cc1ccc(O)cc1)C(=O)N[C@H]1CSSC[C@@H](C(=O)N[C@@H](Cc2cccc3ccccc23)C(=O)N[C@@H](Cc2ccccc2)C(=O)N[C@H](C(=O)N[C@H](CCCCNC(=O)CN2CCN(CC(=O)O)CCN(CC(=O)O)CCN(CC(=O)O)CC2)C(N)=O)[C@@H](C)O)NC(=O)[C@H](Cc2ccc(O)cc2)NC(=O)[C@H](C(C)C)NC(=O)[C@H](CC(=O)O)NC(=O)[C@H](Cc2ccc(O)cc2)NC(=O)[C@H](CCCCN)NC(=O)CNC(=O)[C@H](C(C)(C)C)NC1=O

% cell associated fraction [5]: 25 to 50%
B2: Cpd 288 (peptide)
peptide: Ac-[hLeu]YCVGK[Ala(4-THP)]DVYC[Trp(5-F)]FP[dK](DOTA)-OH
modifications: disulfide 3-11
SMILES: CC(=O)N[C@@H](CCC(C)C)C(=O)N[C@@H](Cc1ccc(O)cc1)C(=O)N[C@H]1CSSC[C@@H](C(=O)N[C@@H](Cc2c[nH]c3ccc(F)cc23)C(=O)N[C@@H](Cc2ccccc2)C(=O)N2CCC[C@H]2C(=O)N[C@H](CCCCNC(=O)CN2CCN(CC(=O)O)CCN(CC(=O)O)CCN(CC(=O)O)CC2)C(=O)O)NC(=O)[C@H](Cc2ccc(O)cc2)NC(=O)[C@H](C(C)C)NC(=O)[C@H](CC(=O)O)NC(=O)[C@H](CC2CCOCC2)NC(=O)[C@H](CCCCN)NC(=O)CNC(=O)[C@H](C(C)C)NC1=O

% cell associated fraction [5]: 25 to 50%
Molecule: Ac-[hLeu]YCVGK[Ala(4-THP)]DVYC[Trp(5-F)]FP[dK]([PEG4′-DOTA])-NH2 (disulfide 3-11) [Cpd 282]

% cell associated fraction [5]: 25 to 50%
Molecule: Ac-[hLeu]YC[Tle]GK[Ala(4-THP)]DVYC[1Nal]FP[dK]([PEG4′-DOTA])-NH2 (disulfide 3-11) [Cpd 259]
